In patent publication US20230091047A1 (priority 2019, published 2023):
Like-named read-outs stand apart in the source and are kept apart here.

Experiments:
in vitro = assay type: cell-based; conditions: human, HepG2 or HepG2.117 cells, mean value
Outline: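 Luminescent ATP quantitation served as the viability endpoint following a 3- or 4-day incubation with test compounds.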

[1] = system: HBV (HepG2.117 cell line, inducibly HBV producing); assay: Anti-HBV activity: intracellular HBV DNA by real-time PCR in HepG2.117 cells after 3 days of treatment; assay type: cell-based, hepatitis B virus
Outline: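 Readout is intracellular HBV DNA, measured by real-time PCR with HBV-specific primers and probe after 3 days of exposure to serial compound dilutions. Cells are the stable HepG2.117 line, where HBV replication is induced in the absence of doxycycline.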

[2] = ATPlite, 3-days incubation (not marked with *)
[3] = Hepatitis B virus, HepG2.117, 72 h, HepG2.117 cells, intracellular HBV DNA by real-time PCR, 3 days of treatment, mean value; read-out: EC50 (μM, mean value)
[4] = 3-days incubation (unmarked values), ATPlite
[5] = Hepatitis B virus, HepG2.117, 72 h, HepG2.117 cells, 3 days of treatment, intracellular HBV DNA by real-time PCR; mean value; read-out: EC50 (μM, mean value)

SMILES	CC50 at 3 days (in vitro; [2]) [µM]	EC50 [1, 3] [µM]	CC50 at 3 days (in vitro; [4]) [µM]	EC50 [1, 5] [µM]	other results
CNC(=O)c1ccc(-n2c(NCc3ncnn3-c3ccccc3)nc3c(c2=O)C[C@@H](C)N(C(=O)c2ccc(Cl)c(Cl)c2)C3)cc1 [Compound C553]	> 50	23.7			
CC(C)Nc1nc2c(c(=O)n1-c1ccc(S(C)(=O)=O)cc1)CCN(C(=O)c1cc3ccccc3o1)C2 [Compound C152, 7-(1-benzofuran-2-carbonyl)-3-[4-(methanesulfonyl)phenyl]-2-[(propan-2-yl)amino]-5,6,7,8-tetrahydropyrido[3,4-d]pyrimidin-4(3H)-one]			> 50	30.8	
CNC(=O)c1ccc(-n2c(NC3CC3(C)C)nc3c(c2=O)C[C@@H](C)N(C(=O)c2ccc(Cl)c(Cl)c2)C3)cc1 (stereo partly drawn) [Compound C333, 4-[(6R)-7-(3,4-dichlorobenzoyl)-2-[(2,2-dimethylcyclopropyl)amino]-6-methyl-4-oxo-5,6,7,8-tetrahydropyrido[3,4-d]pyrimidin-3(4H)-yl]-N-methylbenzamide]			> 43	1.64	
CNC(=O)c1ccc(-n2c(N[C@@H](C)CCO)nc3c(c2=O)C[C@@H](C)N(C(=O)c2ccc(Cl)c(Cl)c2)C3)cc1 [Compound C276, 4-[(6R)-7-(3,4-dichlorobenzoyl)-2-{[(2S)-4-hydroxybutan-2-yl]amino}-6-methyl-4-oxo-5,6,7,8-tetrahydropyrido[3,4-d]pyrimidin-3(4H)-yl]-N-methylbenzamide]			> 50	1.68	
CNC(=O)c1ccc(-n2c(NCc3c[nH]nn3)nc3c(c2=O)C[C@@H](C)N(C(=O)c2ccc(Cl)c(Cl)c2)C3)cc1 [Compound C423]	> 50	> 7.4			
CNC(=O)c1ccc(-n2c(NC(C)C)nc3c(c2=O)C[C@@H](C)N(C(=O)c2ccc(C(F)F)c(F)c2)C3)cc1 [Compound C500]	> 50	0.59			
CC(C)Nc1nc2c(c(=O)n1-c1ccc3c(c1)CC(=O)N3)C[C@@H](C)N(C(=O)c1ccc(Cl)c(Cl)c1)C2 [Compound C206, (6R)-7-(3,4-dichlorobenzoyl)-6-methyl-3-(2-oxo-2,3-dihydro-1H-indol-5-yl)-2-[(propan-2-yl)amino]-5,6,7,8-tetrahydropyrido[3,4-d]pyrimidin-4(3H)-one]			48.9	0.16	
CNC(=O)c1ccc(-n2c(N[C@@H](C)C3CC3)nc3c(c2=O)C[C@@H](C)N(C(=O)c2ccc(Cl)c(Cl)c2)C3)cc1 [Compound C294, 4-[(6R)-2-{[(1S)-1-cyclopropylethyl]amino}-7-(3,4-dichlorobenzoyl)-6-methyl-4-oxo-5,6,7,8-tetrahydropyrido[3,4-d]pyrimidin-3(4H)-yl]-N-methylbenzamide]			26.5	0.05	
CNC(=O)c1ccc(-n2c(NC(C)C)nc3c(c2=O)C[C@@H](C)N(C(=O)c2ccc(F)c(C)c2)C3)cc1 [Compound C499]	> 50	1.53			
Cc1noc(C)c1-c1ccc(-n2c(NC(C)C)nc3c(c2=O)C[C@@H](C)N(C(=O)c2ccc(Cl)c(Cl)c2)C3)cc1 [Compound C211, (6R)-7-(3,4-dichlorobenzoyl)-3-[4-(3,5-dimethyl-1,2-oxazol-4-yl)phenyl]-6-methyl-2-[(propan-2-yl)amino]-5,6,7,8-tetrahydropyrido[3,4-d]pyrimidin-4(3H)-one]			> 50	0.15	
CNC(=O)c1ccc(-n2c(NC(C)C(C)(C)C)nc3c(c2=O)C[C@@H](C)N(C(=O)c2ccc(Cl)c(Cl)c2)C3)cc1 (stereo partly shown) [Compound C459]	28.6	0.24			
COCCNC(=O)c1ccc(-n2c(NC(C)C)nc3c(c2=O)C[C@@H](C)N(C(=O)c2ccc(Cl)c(Cl)c2)C3)cc1 [Compound C205, 4-[(6R)-7-(3,4-dichlorobenzoyl)-6-methyl-4-oxo-2-[(propan-2-yl)amino]-5,6,7,8-tetrahydropyrido[3,4-d]pyrimidin-3(4H)-yl]-N-(2-methoxyethyl)benzamide]			> 50	0.13	
CNC(=O)c1ccc(-n2c(N3CC4(CCC4)C3)nc3c(c2=O)C[C@@H](C)N(C(=O)c2ccc(Cl)c(Cl)c2)C3)cc1 [Compound C332, 4-[(6R)-2-(2-azaspiro[3.3]heptan-2-yl)-7-(3,4-dichlorobenzoyl)-6-methyl-4-oxo-5,6,7,8-tetrahydropyrido[3,4-d]pyrimidin-3(4H)-yl]-N-methylbenzamide]			26	1.46	
CNC(=O)c1ccc(-n2c(NC(C)C)nc3c(c2=O)C[C@@H](C)N(C(=O)c2ccc(Cl)c(C)c2)C3)cc1 [Compound C429]	> 50	0.06			
CNC(=O)c1ccc(-n2c(NC(C)C)nc3c(c2=O)C[C@@H](C)N(C(=O)c2cc(Cl)c(Br)cc2F)C3)cc1 [Compound C577]	> 50	0.17			
COc1ccc(CNc2nc3c(c(=O)[nH]2)CCN(C(=O)c2ccc(Cl)cc2)C3)cc1 [Compound C115, 7-(4-chlorobenzoyl)-2-{[(4-methoxyphenyl)methyl]amino}-5,6,7,8-tetrahydropyrido[3,4-d]pyrimidin-4(3H)-one]			42.8	37.1	
COc1ccc(CNc2nc3c(c(=O)n2-c2ccccc2Cl)CCN(C(=O)c2ccc(Cl)c(Cl)c2)C3)cc1 [Compound C15, 3-(2-chlorophenyl)-7-(3,4-dichlorobenzoyl)-2-{[(4-methoxyphenyl)methyl]amino}-5,6,7,8-tetrahydropyrido[3,4-d]pyrimidin-4(3H)-one]			> 50	1.08	
CNC(=O)c1ccc(-n2c(NC[C@H](C)c3cccc(OC)c3)nc3c(c2=O)C[C@@H](C)N(C(=O)c2ccc(Cl)c(Cl)c2)C3)cc1 (single isomer, unassigned) [Compound C436a]	22.3	0.99			
CNC(=O)c1ccc(-n2c(NC(C)C)nc3c(c2=O)C[C@@H](C)N(C(=O)c2ccc(F)c(C#N)c2)C3)cc1 [Compound C641]	> 50	1.99			
CNC(=O)c1ccc(-n2c(N[C@@H](C)c3ccncc3)nc3c(c2=O)C[C@@H](C)N(C(=O)c2ccc(Cl)c(Cl)c2)C3)cc1 (single isomer, unassigned) [Compound C375b]			> 50	0.62	
CNC1CCN(c2ccc(-n3c(NC(C)C)nc4c(c3=O)CCN(C(=O)c3ccc(Cl)c(Cl)c3)C4)cc2)C1 (stereo not shown) [Compound C180, 7-(3,4-dichlorobenzoyl)-3-{4-[3-(methylamino)pyrrolidin-1-yl]phenyl}-2-[(propan-2-yl)amino]-5,6,7,8-tetrahydropyrido[3,4-d]pyrimidin-4(3H)-one]			5.6	0.72	
CNC(=O)c1ccc(-n2c(NC)nc3c(c2=O)C[C@@H](C)N(C(=O)c2ccc(Cl)c(Cl)c2)C3)nc1 [Compound C331, 6-[(6R)-7-(3,4-dichlorobenzoyl)-6-methyl-2-(methylamino)-4-oxo-5,6,7,8-tetrahydropyrido[3,4-d]pyrimidin-3(4H)-yl]-N-methylpyridine-3-carboxamide]			> 50	0.95	
CC(C)Nc1nc2c(c(=O)n1-c1ccc(S(C)(=O)=O)cc1)CCN(C(=O)c1ccc(C(F)(F)F)nc1)C2 [Compound C367]			> 50	> 10	
CC(C)Nc1nc2c(c(=O)n1-c1ccc(S(C)(=O)=O)cc1)CC(c1ccc(F)cc1)N(C(=O)c1ccc(Cl)c(Cl)c1)C2 (stereo not shown) [Compound C110, 7-(3,4-dichlorobenzoyl)-6-(4-fluorophenyl)-3-[4-(methanesulfonyl)phenyl]-2-[(propan-2-yl)amino]-5,6,7,8-tetrahydropyrido[3,4-d]pyrimidin-4(3H)-one]			> 50	> 50	
CNC(=O)c1cnc(-n2c(NC(C)C)nc3c(c2=O)C[C@@H](C)N(C(=O)c2ccc(Cl)c(C(F)(F)F)c2)C3)cn1 [Compound C695]				0.04	CC50 at 3 days (in vitro; 3-days incubation (unmarked values), ATPlite viability): > 50 µM
CNC(=O)c1ccc(-n2c(NC(C)C)nc3c(c2=O)C[C@@H](C)N(C(=O)c2ccc(Cl)c(Cl)c2)C3)nn1 [Compound C281, 6-[(6R)-7-(3,4-dichlorobenzoyl)-6-methyl-4-oxo-2-[(propan-2-yl)amino]-5,6,7,8-tetrahydropyrido[3,4-d]pyrimidin-3(4H)-yl]-N-methylpyridazine-3-carboxamide]			> 50	0.16	
COc1ccccc1-n1c(NCc2ccncc2)nc2c(c1=O)CCN(C(=O)c1ccc(Cl)c(Cl)c1)C2 [Compound C5, 7-(3,4-dichlorobenzoyl)-3-(2-methoxyphenyl)-2-{[(Pyridin-4-yl)methyl]amino}-5,6,7,8-tetrahydropyrido[3,4-d]pyrimidin-4(3H)-one]				5.35	CC50 at 4 days (in vitro; 4-days incubation (values marked with *), ATPlite): > 50 µM
COc1ccc(CNc2nc3c(c(=O)n2-c2ccc(S(C)(=O)=O)cc2)C[C@@H](C)N(C(=O)c2ccc(Cl)c(Cl)c2)C3)cc1 [Compound C145, (6R)-7-(3,4-dichlorobenzoyl)-3-[4-(methanesulfonyl)phenyl]-2-{[(4-methoxyphenyl)methyl]amino}-6-methyl-5,6,7,8-tetrahydropyrido[3,4-d]pyrimidin-4(3H)-one]			> 42	0.31	
CC(C)Nc1nc2c(c(=O)n1-c1ccc(-c3ccnnc3)cc1)CCN(C(=O)c1ccc(Cl)c(Cl)c1)C2 [Compound C177, 7-(3,4-dichlorobenzoyl)-2-[(propan-2-yl)amino]-3-[4-(pyridazin-4-yl)phenyl]-5,6,7,8-tetrahydropyrido[3,4-d]pyrimidin-4(3H)-one]			18.2	0.26	
